Measurements published in patent US20250115669A1, “FGFR1/KLB Targeting Agonistic Antigen-Binding Proteins and Conjugates Thereof with GLP-1R Agonistic Peptides” (SANOFI, priority 2020, published 2025).
Like-named read-outs stand apart in the source and are kept apart here. Bridge positions count the residues as written; N and C are the ends. Ends that are not written are not given here. Peptide text beside a SMILES is read from it.

Experiments:
Format in all cases: cell-based
human GLP-1 receptor = target: T1, human GLP-1 receptor (Homo sapiens, UniProt P43220); assay: HTRF cAMP assay in HEK-293 cells expressing human GLP-1 receptor
T1 construct: expressed in transfected cells; host or cells: PSC-HEK-293
Description: (§1) Each vial contained 1.8 ml cells. The vials were slowly frozen to −80° C. in isopropanol, and then transferred in liquid nitrogen for storage.
(§2) Cells were resuspended in assay buffer (cell buffer plus 2 mM IBMX) and adjusted to a cell density of 1 million cells/ml.
(§3) For measurement of cAMP generation, 5 μl cells (final 5000 cells/well) and 5 μl of test compound were added to a 384-well plate, followed by incubation for 30 min at room temperature.
(§4) The cAMP generated was determined using a kit from Cisbio Corp. based on HTRF (Homogenous Time Resolved Fluorescence). The cAMP assay was performed according to manufacturer's instructions (Cisbio).

[1] = target: T2, human glucagon (GCG) receptor (Homo sapiens, UniProt P47871); assay: HTRF cAMP assay in HEK-293 cells expressing human glucagon receptor
T2 construct: expressed in transfected cells; host or cells: PSC-HEK-293
Description: as §1, §2, §3, §4

human GIP receptor = target: T3, human GIP receptor (Homo sapiens, UniProt P48546); assay: HTRF cAMP assay in HEK-293 cells expressing human GIP receptor
T3 construct: expressed in transfected cells; host or cells: PSC-HEK-293
T3 sequence (P48546 22-466): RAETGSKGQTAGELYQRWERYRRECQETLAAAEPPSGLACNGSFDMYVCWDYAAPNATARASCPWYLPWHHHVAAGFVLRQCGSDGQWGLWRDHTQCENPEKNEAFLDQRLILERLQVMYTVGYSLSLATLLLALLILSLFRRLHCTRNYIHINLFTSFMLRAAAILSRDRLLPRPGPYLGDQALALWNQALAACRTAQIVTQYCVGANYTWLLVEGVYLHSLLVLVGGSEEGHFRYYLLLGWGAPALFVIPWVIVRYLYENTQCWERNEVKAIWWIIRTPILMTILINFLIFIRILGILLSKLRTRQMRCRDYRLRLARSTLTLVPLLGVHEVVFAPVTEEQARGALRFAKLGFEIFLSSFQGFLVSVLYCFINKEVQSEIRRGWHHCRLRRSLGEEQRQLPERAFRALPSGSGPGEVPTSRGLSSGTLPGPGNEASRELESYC
Description: as §1, §2, §3, §4

[2] = HEK-293 cells, read-out: HTRF cAMP EC50 Human GLP-1R
[3] = HEK-293 cells, read-out: HTRF cAMP EC50 Human GCGR
[4] = HEK-293 cells, read-out: HTRF cAMP EC50 Human GIPR

T2 sequence (P47871 26-477): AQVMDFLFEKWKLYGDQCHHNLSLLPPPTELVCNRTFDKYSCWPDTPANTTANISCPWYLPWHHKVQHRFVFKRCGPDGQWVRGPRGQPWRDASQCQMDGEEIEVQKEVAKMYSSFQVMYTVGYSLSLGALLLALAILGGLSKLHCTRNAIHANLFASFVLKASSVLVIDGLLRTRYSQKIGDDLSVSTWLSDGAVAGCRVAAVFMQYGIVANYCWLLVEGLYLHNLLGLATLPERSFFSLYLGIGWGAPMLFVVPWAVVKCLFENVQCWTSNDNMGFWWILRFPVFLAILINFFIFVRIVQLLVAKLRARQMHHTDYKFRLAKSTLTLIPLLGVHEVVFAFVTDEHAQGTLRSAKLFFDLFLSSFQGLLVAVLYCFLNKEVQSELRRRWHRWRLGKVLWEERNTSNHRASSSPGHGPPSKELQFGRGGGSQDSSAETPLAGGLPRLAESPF
T1 sequence (P43220 24-463): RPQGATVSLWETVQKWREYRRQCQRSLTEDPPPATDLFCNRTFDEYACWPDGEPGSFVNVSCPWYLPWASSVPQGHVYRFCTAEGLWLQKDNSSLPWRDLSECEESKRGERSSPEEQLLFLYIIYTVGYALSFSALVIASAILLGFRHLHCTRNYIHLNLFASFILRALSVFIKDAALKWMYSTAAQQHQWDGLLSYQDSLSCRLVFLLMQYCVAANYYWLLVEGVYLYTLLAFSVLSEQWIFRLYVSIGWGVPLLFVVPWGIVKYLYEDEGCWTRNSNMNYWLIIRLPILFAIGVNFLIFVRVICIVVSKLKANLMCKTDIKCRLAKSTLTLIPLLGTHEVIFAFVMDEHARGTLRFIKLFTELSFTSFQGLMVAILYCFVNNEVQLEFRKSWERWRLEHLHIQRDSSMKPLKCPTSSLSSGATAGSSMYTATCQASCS

Molecule | EC50 (human GLP-1 receptor; [2]) [nM] | EC50 [1, 3] [nM] | EC50 (human GIP receptor; [4]) [nM] | EC50 (human GLP-1 receptor) [nM] | EC50 [1] [nM] | EC50 (human GIP receptor) [nM]
CC[C@H](C)[C@H](NC(=O)[C@H](Cc1ccccc1)NC(=O)[C@H](CC(C)C)NC(=O)[C@H](Cc1c[nH]cn1)NC(=O)[C@H](CCC(N)=O)NC(=O)[C@H](C)NC(=O)[C@H](CCC(=O)O)NC(=O)[C@H](CCC(=O)O)NC(=O)[C@H](CCC(=O)O)NC(=O)[C@H](CC(C)C)NC(=O)[C@H](CCC(N)=O)NC(=O)[C@H](CCCCN)NC(=O)[C@H](CO)NC(=O)[C@H](CC(C)C)NC(=O)[C@H](CC(=O)O)NC(=O)[C@H](CO)NC(=O)[C@@H](NC(=O)[C@H](Cc1ccccc1)NC(=O)[C@@H](NC(=O)CNC(=O)[C@H](CCC(=O)O)NC(=O)CNC(=O)[C@H](Cc1c[nH]cn1)NC(=O)CN)[C@@H](C)O)[C@@H](C)O)C(=O)N[C@@H](CCC(=O)O)C(=O)N[C@@H](Cc1c[nH]c2ccccc12)C(=O)N[C@@H](CC(C)C)C(=O)N[C@@H](CCCCN)C(=O)N[C@@H](C)C(=O)NCC(=O)NCC(=O)N1CCC[C@H]1C(=O)N[C@@H](CO)C(=O)N[C@@H](CO)C(=O)NCC(=O)N[C@@H](CCCCN)C(=O)N1CCC[C@H]1C(=O)N1CCC[C@H]1C(=O)N1CCC[C@H]1C(=O)N[C@@H](CCCCN)C(N)=O [Ab P037] (H-GHGEGTFTSDLSKQLEEEAQHLFIEWLKAGGPSSGKPPPK-NH2; N-terminus assumed) | 0.158 | > 10 | > 10 | – | – | –
CC[C@H](C)[C@H](NC(=O)[C@H](Cc1ccccc1)NC(=O)[C@H](CC(C)C)NC(=O)[C@H](CCCNC(=N)N)NC(=O)[C@@H](NC(=O)[C@H](C)NC(=O)[C@H](CCC(=O)O)NC(=O)[C@H](CCC(=O)O)NC(=O)[C@H](CCC(=O)O)NC(=O)[C@H](CC(C)C)NC(=O)[C@H](CCC(N)=O)NC(=O)[C@H](CCCCN)NC(=O)[C@H](CO)NC(=O)[C@H](CC(C)C)NC(=O)[C@H](CC(=O)O)NC(=O)[C@H](CO)NC(=O)[C@@H](NC(=O)[C@H](Cc1ccccc1)NC(=O)[C@@H](NC(=O)CNC(=O)[C@H](CCC(=O)O)NC(=O)CNC(=O)[C@H](Cc1c[nH]cn1)NC(=O)CN)[C@@H](C)O)[C@@H](C)O)C(C)C)C(=O)N[C@@H](CCC(=O)O)C(=O)N[C@@H](Cc1c[nH]c2ccccc12)C(=O)N[C@@H](CC(C)C)C(=O)N[C@@H](CCCCN)C(=O)N[C@@H](C)C(=O)NCC(=O)NCC(=O)N1CCC[C@H]1C(=O)N[C@@H](CO)C(=O)N[C@@H](CO)C(=O)NCC(=O)N[C@@H](C)C(=O)N1CCC[C@H]1C(=O)N1CCC[C@H]1C(=O)N1CCC[C@H]1C(=O)N[C@@H](CO)C(N)=O [Ab P017] (H-GHGEGTFTSDLSKQLEEEAVRLFIEWLKAGGPSSGAPPPS-NH2) | – | – | – | 0.0085 | > 10 | > 10
HGEGTFTSDLSKQCEEERVQLFIEWLKATGPSSGKPPPKPGC-NH2 (disulfide 14-42) [Ab P035] | 0.0203 | > 10 | > 10 | – | – | –
CC[C@H](C)[C@H](NC(=O)[C@H](Cc1ccccc1)NC(=O)[C@H](CC(C)C)NC(=O)[C@H](CCCNC(=N)N)NC(=O)[C@@H](NC(=O)[C@H](C)NC(=O)[C@H](CCC(=O)O)NC(=O)[C@H](CCC(=O)O)NC(=O)[C@H](CCC(=O)O)NC(=O)[C@H](CC(C)C)NC(=O)[C@H](CCC(N)=O)NC(=O)[C@H](CCCCN)NC(=O)[C@H](CO)NC(=O)[C@H](CCCCN)NC(=O)[C@H](CC(=O)O)NC(=O)[C@H](CO)NC(=O)[C@@H](NC(=O)[C@H](Cc1ccccc1)NC(=O)[C@@H](NC(=O)CNC(=O)[C@H](CCC(=O)O)NC(=O)CNC(=O)[C@H](Cc1c[nH]cn1)NC(=O)CN)[C@@H](C)O)[C@@H](C)O)C(C)C)C(=O)N[C@@H](CCC(=O)O)C(=O)N[C@@H](Cc1c[nH]c2ccccc12)C(=O)N[C@@H](CC(C)C)C(=O)N[C@@H](CCCCN)C(=O)N[C@@H](C)C(=O)NCC(=O)NCC(=O)N1CCC[C@H]1C(=O)N[C@@H](CO)C(=O)N[C@@H](CO)C(=O)NCC(=O)N[C@@H](C)C(=O)N1CCC[C@H]1C(=O)N1CCC[C@H]1C(=O)N1CCC[C@H]1C(=O)N[C@@H](CO)C(N)=O [Ab P021] (H-GHGEGTFTSDKSKQLEEEAVRLFIEWLKAGGPSSGAPPPS-NH2) | – | – | – | 0.0276 | > 10 | > 10
CC[C@H](C)[C@H](NC(=O)[C@H](CC(C)C)NC(=O)[C@H](Cc1c[nH]c2ccccc12)NC(=O)[C@H](CC(C)C)NC(=O)[C@@H](NC(=O)[C@H](Cc1ccccc1)NC(=O)[C@H](CC(C)C)NC(=O)[C@H](CCCNC(=N)N)NC(=O)[C@@H](NC(=O)[C@H](CC(C)C)NC(=O)[C@H](CCCNC(=N)N)NC(=O)[C@H](CCCCN)NC(=O)[C@H](CCC(=O)O)NC(=O)[C@H](CC(C)C)NC(=O)[C@H](CCC(N)=O)NC(=O)[C@H](CCCCN)NC(=O)[C@H](CO)NC(=O)[C@H](CCCCN)NC(=O)[C@H](CC(=O)O)NC(=O)[C@H](CO)NC(=O)[C@@H](NC(=O)[C@H](Cc1ccccc1)NC(=O)[C@@H](NC(=O)CNC(=O)[C@H](CCC(=O)O)NC(=O)CNC(=O)[C@@H](N)Cc1c[nH]cn1)[C@@H](C)O)[C@@H](C)O)C(C)C)[C@@H](C)CC)C(=O)N[C@@H](C)C(=O)NCC(=O)NCC(=O)N[C@@H](Cc1c[nH]cn1)C(=O)N[C@@H](CO)C(=O)N[C@@H](CO)C(=O)NCC(=O)N[C@@H](CCCCN)C(=O)N1CCC[C@H]1C(=O)N1CCC[C@H]1C(=O)N1CCC[C@H]1C(=O)N[C@@H](CCCCN)C(N)=O [Ab P023] (H-HGEGTFTSDKSKQLEKRLVRLFILWLIAGGHSSGKPPPK-NH2; N-terminus assumed) | 0.0017 | > 10 | > 10 | – | – | –
CC[C@H](C)[C@H](NC(=O)[C@H](Cc1ccccc1)NC(=O)[C@H](CC(C)C)NC(=O)[C@H](CCC(N)=O)NC(=O)[C@@H](NC(=O)[C@H](C)NC(=O)[C@H](CCC(=O)O)NC(=O)[C@H](CCC(=O)O)NC(=O)[C@H](CCC(=O)O)NC(=O)[C@H](CC(C)C)NC(=O)[C@H](CCC(N)=O)NC(=O)[C@H](CCCCN)NC(=O)[C@H](CO)NC(=O)[C@H](CC(C)C)NC(=O)[C@H](CC(=O)O)NC(=O)[C@H](CO)NC(=O)[C@@H](NC(=O)[C@H](Cc1ccccc1)NC(=O)[C@@H](NC(=O)CNC(=O)[C@H](CCC(=O)O)NC(=O)CNC(=O)[C@H](Cc1c[nH]cn1)NC(=O)CN)[C@@H](C)O)[C@@H](C)O)C(C)C)C(=O)N[C@@H](CCC(=O)O)C(=O)N[C@@H](Cc1c[nH]c2ccccc12)C(=O)N[C@@H](CC(C)C)C(=O)N[C@@H](CCCCN)C(=O)N[C@@H](C)C(=O)NCC(=O)NCC(=O)N1CCC[C@H]1C(=O)N[C@@H](CO)C(=O)N[C@@H](CO)C(=O)NCC(=O)N[C@@H](CCCCN)C(=O)N1CCC[C@H]1C(=O)N1CCC[C@H]1C(=O)N1CCC[C@H]1C(=O)N[C@@H](CCCCN)C(N)=O [Ab P038] (H-GHGEGTFTSDLSKQLEEEAVQLFIEWLKAGGPSSGKPPPK-NH2; N-terminus assumed) | 0.0524 | > 10 | > 10 | – | – | –
CC[C@H](C)[C@H](NC(=O)[C@H](CC(C)C)NC(=O)[C@H](Cc1c[nH]c2ccccc12)NC(=O)[C@H](Cc1ccc(O)cc1)NC(=O)[C@@H](NC(=O)[C@H](Cc1ccccc1)NC(=O)[C@H](CC(C)C)NC(=O)[C@H](CCCNC(=N)N)NC(=O)[C@@H](NC(=O)[C@H](CC(C)C)NC(=O)[C@H](CCCNC(=N)N)NC(=O)[C@H](CCCCN)NC(=O)[C@H](CCC(=O)O)NC(=O)[C@H](CC(C)C)NC(=O)[C@H](CCC(N)=O)NC(=O)[C@H](CCCCN)NC(=O)[C@H](CO)NC(=O)[C@H](CCCCN)NC(=O)[C@H](CC(=O)O)NC(=O)[C@H](CO)NC(=O)[C@@H](NC(=O)[C@H](Cc1ccccc1)NC(=O)[C@@H](NC(=O)CNC(=O)[C@H](CCC(=O)O)NC(=O)CNC(=O)[C@@H](N)Cc1c[nH]cn1)[C@@H](C)O)[C@@H](C)O)C(C)C)[C@@H](C)CC)C(=O)N[C@@H](C)C(=O)NCC(=O)NCC(=O)N[C@@H](Cc1c[nH]cn1)C(=O)N[C@@H](CO)C(=O)N[C@@H](CO)C(=O)NCC(=O)N[C@@H](CCCCN)C(=O)N1CCC[C@H]1C(=O)N1CCC[C@H]1C(=O)N1CCC[C@H]1C(=O)N[C@@H](CCCCN)C(N)=O [Ab P024] (H-HGEGTFTSDKSKQLEKRLVRLFIYWLIAGGHSSGKPPPK-NH2; N-terminus assumed) | 0.0026 | > 10 | ≥ 10 | – | – | –
